Results on one compound are retold here after patent US10940113B2, “Pharmaceutical composition for colon targeting, method for treating a colon-related disease using the same and preparation method thereof” (priority 2017, dated 2021).

In this assay the test system is distal colitis induced via intracolonic injection of DNBS. The experiment in a line: DNBS-induced distal colitis animal test. The class given is in vivo, Male Wistar mice. As to conditions: 2 CAP qd × 7, PO, sacrificed at Day 8. The method, then:
[…] were starved for 24 hr, and distal colitis was induced via intracolonic injection of DNBS (2,4-dinitrobenzene sulfonic acid, 30 mg in 0.5 mL ethanol (30%)). Then, 2 mL air was injected after instillation of the enema to ensure the solution was remained in the colon. The test substance (the pharmaceutical composition of Embodiment 3-1) and mesalamine were oral administered 24 hr and 2 hr prior to the DNBS injection, followed by administering one dose a day, and 5 days. The total doses of the test substance and mesalamine were 7 doses. The body weight, fecal occult blood and fecal consistency were recorded every day during the experiment. The animals were sacrificed at Day 8. The adhesions of colon and other organs were observed after abdominal opening, the colitis still can be observed, and the colon was carried out and weighted.

`Nc1ccc(O)c(C(=O)O)c1` [Mesalamine, mesalamine] showed an Adhesion of 0.0 ± 0.0, a Colon width of 1.0 ± 0.0, a Strictures of 2.6 ± 0.2 and a Ulcers/Inflammation of 3.2 ± 0.54.
